Results as given in patent US5824696A, “Medicaments” (SmithKline Beecham Corporation, priority 1993, dated 1998).
Where a chain is given by its changes, count along the chain named. Read-outs that look alike come from different tables or passages of the source. One block for each molecule: values may come before it.

What was measured:
[1] = biological target: T1, angiotensin receptors in human synovium (Homo sapiens, UniProt P30556); assay: Inhibition of [125I](Sar1, Ile8)AII binding to human synovium, quantitative receptor autoradiography; set-up: Binding of [125I](Sar1, Ile8) angiotensin II in the presence of antagonist: unit not given here; conditions: for Binding of [125I](Sar1, Ile8) angiotensin II in the presence of DTT: osteoarthritis; for nHill values / Ki: osteoarthritic synovium; for Ki: 0.25 nM [125I](Sar1, Ile8)AII; for Binding of [125I](Sar1, Ile8) angiotensin II in the presence of antagonist: 10 μM antagonist
T1 construct: Human knee synovium was collected at surgery from patients with osteoarthritis or rheumatoid arthritis; from tissue; host or cells: human knee synovium cryostat sections (osteoarthritis, rheumatoid arthritis, chondromalacia patellae)
T1 sequence (P30556 1-359): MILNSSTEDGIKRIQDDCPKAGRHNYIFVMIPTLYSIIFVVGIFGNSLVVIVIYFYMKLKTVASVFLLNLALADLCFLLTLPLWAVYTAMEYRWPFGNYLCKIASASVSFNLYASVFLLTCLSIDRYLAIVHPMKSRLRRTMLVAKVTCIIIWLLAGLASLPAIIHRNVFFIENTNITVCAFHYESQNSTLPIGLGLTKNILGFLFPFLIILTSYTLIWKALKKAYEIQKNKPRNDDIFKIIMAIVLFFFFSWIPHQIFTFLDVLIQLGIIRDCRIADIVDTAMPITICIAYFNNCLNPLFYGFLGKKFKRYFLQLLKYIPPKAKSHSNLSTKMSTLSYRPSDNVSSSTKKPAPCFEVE
Method: Human knee synovium was collected at surgery from patients with osteoarthritis or rheumatoid arthritis undergoing total knee replacement and patients with chondromalacia patellae undergoing carbon fibre resurfacing of articular cartilage. Tissue samples were immediately embedded in Tissue-Tek (Miles Inc., Elkhart, Ind., USA) and frozen to cork mounts in melting isopentane without prior fixation. Specimens were stored at -40° C. until use. […] thick sections were cut in a cryostat and thaw mounted onto Vectabond™ (Vector Laboratories, Peterborough, U.K.) treated slides, air dried and used immediately, or stored at -20° C. with silica gel for up to 5 days until use.
[…] Excess buffer was removed and sections were incubated for 90 minutes with ligand in buffer B (buffer A plus 1% bovine serum albumin). […] Except where stated, incubations were performed at 22° C.
Films were developed in Kodak D9 for 3 minutes at 15° C. […] Synovial structures were identified, where necessary, by comparison of films with tissue sections counterstained with haematoxylin and eosin. Tissue structures (blood vessels, lining cells and regions of subintimal stroma displaying specific binding) were each delineated interactively. Binding was quantified on the 20 blood vessels in each section with the most dense specific binding.
Specific binding was defined as total minus non-specific binding. Characterisation of specific binding was performed on samples of synovium from patients with osteoarthritis.
Kinetic and equilibrium constants were derived from specific binding values by iterative non-linear regression assuming single site models using GraphPAD Inplot4 (San Diego). […] Values for binding inhibition constants (Ki) and HIll coefficients (nHill) were derived by fitting to sigmoid curves.

[2] = biological target: T2, contractile response to angiotensin II in the isolated rabbit aorta (Oryctolagus cuniculus, UniProt P34976); assay: Antagonism of angiotensin II induced vasoconstriction in isolated rabbit aorta; conditions: rabbit thoracic aorta rings, 30-minute incubation, dose ratio method; read-out: Antagonist dissociation constant (KB)
T2 construct: Ring segments are cut from the rabbit thoracic aorta; from tissue; host or cells: rabbit thoracic aorta ring segments
T2 sequence (P34976 1-359): T1 sequence (P30556 1-359) with I2M, V49A, I254V, I270V, R272H, R311K, T349S, A353V
Method: Angiotensin II antagonist activity is assessed by in vitro methods In vitro antagonist activity is determined by the ability of the compounds to compete with ^125 I-angiotensin II for binding to vascular angiotensin II receptors and by their ability to antagonize the contractile response to angiotensin II in the isolated rabbit aorta.
The ability of the compounds to antagonize angiotensin II induced vasoconstriction is examined in the rabbit aorta. Ring segments are cut from the rabbit thoracic aorta and suspended in organ baths containing physiological salt solution. The ring segments are mounted over metal supports and attached to force displacement transducers which are connected to a recorder. Cumulative concentration response curves to angiotensin II are performed in the absence of antagonist or following a 30-minute incubation with antagonist. Antagonist dissociation constants (KB) are calculated by the dose ratio method using the mean effective concentrations. The KB for (E)-3-[2-n-butyl-1-{4-carboxynaphth-1-yl)methyl}-1H-imidazol-5-yl]-2-(2-thienyl)methyl-2-propenoic acid is about 0.15 nM.

[3] = test system: angiotensin receptors in human synovium; assay: Guanine nucleotide sensitivity of [125I]AII binding to human synovium; conditions: 1 μM GTPγS

Inhibition of specific [125I](Sar1, Ile8)AII binding to each structure ([1]; 10 mM DTT): completely inhibited
Binding of [125I](Sar1, Ile8) angiotensin II in the presence of DTT ([1]; blood vessels, 10 mM DTT, total 10.2, nonspecific 3.2): 3.2 (2.9 to 3.5) amol mm^-2
Binding of [125I](Sar1, Ile8) angiotensin II in the presence of DTT ([1]; lining cells, 10 mM DTT, total 5.1, nonspecific 2.1): 2.0 (1.8 to 2.3) amol mm^-2
Binding of [125I](Sar1, Ile8) angiotensin II in the presence of DTT ([1]; stroma, 10 mM DTT, total 2.6, nonspecific 1.7): 1.6 (1.5 to 1.7) amol mm^-2
Compound: O[C@H](CS)[C@H](O)CS (racemic) [DTT, dithiothreitol]

Kb [2]: ~0.15 nM
Compound: CCCCc1ncc(/C=C(\Cc2cccs2)C(=O)O)n1Cc1ccc(C(=O)O)c2ccccc12 [(E)-3-[2-n-butyl-1-{4-carboxynaphth-1-yl)methyl}-1H-imidazol-5-yl]-2-(2-thienyl)methyl-2-propenoic acid]

nHill values ([1]; blood vessels): 1.2
Ki ([1]; blood vessels, read-out: Ki values): 49 nM
Inhibition of binding of [125I](Sar1, Ile8)AII to microvessels, lining cells and stroma ([1]; inflamed human synovium): potently and completely inhibited
nHill values ([1]; lining cells): 0.8
Ki ([1]; lining cells, read-out: Ki values): 60.3 nM
nHill values ([1]; stroma): 0.8
Ki ([1]; stroma, read-out: Ki values): 81.3 nM
Compound: CCCCc1ncc(/C=C(\Cc2cccs2)C(=O)O)n1Cc1ccc(C(=O)O)cc1 [(E)-3-[2-n-butyl-1-{4-carboxyphenyl)methyl}-1H-imidazol-5-yl]-2-(2-thienyl)methyl-2-propenoic acid]

Compound: Nc1nc2c(ncn2[C@@H]2O[C@H](COP(=O)(O)OP(=O)(O)OP(O)(O)=S)[C@@H](O)[C@H]2O)c(=O)[nH]1 [GTPγS, guanosine 5'-O-(3-thiotriphosphate)]
Inhibition of [125I](Sar1, Ile8)AII binding ([1]; 1 μM GTPγS): did not inhibit
Inhibition of binding of agonist [125I]AII to each structure [3]: levels not significantly different from nonspecific binding

Compound: Cc1cc(Cn2cnc3c2C[C@@H](C(=O)O)N(C(=O)C(c2ccccc2)c2ccccc2)C3)ccc1N(C)C [PD123319]
Inhibition of specific [125I](Sar1, Ile8)AII binding to each structure ([1]; 10 μM, synovium from patients with osteoarthritis and rheumatoid arthritis): not significantly inhibited
Ki ([1]; Ki values, blood vessels): > 10000 nM
Ki ([1]; Ki values, lining cells): > 10000 nM
Ki ([1]; Ki values, stroma): > 10000 nM
Binding of [125I](Sar1, Ile8) angiotensin II in the presence of antagonist ([1]; blood vessels, OA, total 7.9, nonspecific 2.4): 7.1
Binding of [125I](Sar1, Ile8) angiotensin II in the presence of antagonist ([1]; blood vessels, RA, total 14, nonspecific 2.6): 12
Binding of [125I](Sar1, Ile8) angiotensin II in the presence of antagonist ([1]; lining cells, OA, total 3.6, nonspecific 1.6): 3.8
Binding of [125I](Sar1, Ile8) angiotensin II in the presence of antagonist ([1]; lining cells, RA, total 5.7, nonspecific 1.7): 5.5
Binding of [125I](Sar1, Ile8) angiotensin II in the presence of antagonist ([1]; stroma, OA, total 2.4, nonspecific 1.5): 2.2
Binding of [125I](Sar1, Ile8) angiotensin II in the presence of antagonist ([1]; stroma, RA, total 3.0, nonspecific 1.6): 2.9
